Test results: PubChem BioAssay (NCI)
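96-well plates; 48 h exposure; 5 concentrations. Endpoints by linear interpolation between flanking doses. Not reached: highest tested concentration assigned. TGI: total growth inhibition.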

Key:
Experiment in all cases: inhibition of tumour cell growth, NCI panel, 48 h
SF-268 CNS = system: SF-268 CNS
SK-MEL-28 melanoma = system: SK-MEL-28 melanoma
NCI-H460 lung = system: NCI-H460 lung
SK-OV-3 ovarian = system: SK-OV-3 ovarian
OVCAR-3 ovarian = system: OVCAR-3 ovarian
DMS 273 small cell lung = system: DMS 273 small cell lung
SNB-19 CNS = system: SNB-19 CNS
SF-295 CNS = system: SF-295 CNS
NCI-H522 lung = system: NCI-H522 lung
MOLT-4 leukemia = system: MOLT-4 leukemia
ACHN renal = system: ACHN renal
CAKI-1 renal = system: CAKI-1 renal
A549 NSCLC = system: A549 NSCLC
SW-620 colon = system: SW-620 colon
U251 CNS = system: U251 CNS
LOX IMVI melanoma = system: LOX IMVI melanoma
SN12C renal = system: SN12C renal
LXFL 529 NSCLC = system: LXFL 529 NSCLC
KM12 colon = system: KM12 colon
M19-MEL melanoma = system: M19-MEL melanoma
HCT-116 colon = system: HCT-116 colon
A498 renal = system: A498 renal
HOP-62 NSCLC = system: HOP-62 NSCLC
786-0 renal = system: 786-0 renal
SK-MEL-2 melanoma = system: SK-MEL-2 melanoma
UO-31 renal = system: UO-31 renal
RPMI-8226 leukemia = system: RPMI-8226 leukemia
K-562 leukemia = system: K-562 leukemia
UACC-62 melanoma = system: UACC-62 melanoma
SNB-75 CNS = system: SNB-75 CNS
MALME-3M melanoma = system: MALME-3M melanoma
HL-60(TB) leukemia = system: HL-60(TB) leukemia
XF 498 CNS = system: XF 498 CNS
M14 melanoma = system: M14 melanoma
NCI-H23 lung = system: NCI-H23 lung
OVCAR-4 ovarian = system: OVCAR-4 ovarian
UACC-257 melanoma = system: UACC-257 melanoma
KM20L2 colon = system: KM20L2 colon
DLD-1 colon = system: DLD-1 colon
CCRF-CEM leukemia = system: CCRF-CEM leukemia
SR leukemia = system: SR leukemia
OVCAR-8 ovarian = system: OVCAR-8 ovarian
TK-10 renal = system: TK-10 renal
NCI-H226 lung = system: NCI-H226 lung
HCT-15 colon = system: HCT-15 colon
EKVX NSCLC = system: EKVX NSCLC
OVCAR-5 ovarian = system: OVCAR-5 ovarian
IGROV1 ovarian = system: IGROV1 ovarian
DMS 114 small cell lung = system: DMS 114 small cell lung
COLO 205 colon = system: COLO 205 colon
HT29 colon = system: HT29 colon
SK-MEL-5 melanoma = system: SK-MEL-5 melanoma
HCC-2998 colon = system: HCC-2998 colon
HOP-92 NSCLC = system: HOP-92 NSCLC
MDA-N = system: MDA-N
BT-549 breast = system: BT-549 breast
DU-145 prostate = system: DU-145 prostate
PC-3 prostate = system: PC-3 prostate
HS 578T breast = system: HS 578T breast
MDA-MB-435 = system: MDA-MB-435
T-47D breast = system: T-47D breast
MDA-MB-231 breast = system: MDA-MB-231 breast
SF-539 CNS = system: SF-539 CNS
MCF7 breast = system: MCF7 breast
RXF 393 renal = system: RXF 393 renal
NCI/ADR-RES ovarian = system: NCI/ADR-RES ovarian

Measured: TGI

CC1(C)C(=O)C(C)(C)C1=S
> 100 µM: SF-268 CNS | SK-MEL-28 melanoma | NCI-H460 lung | SK-OV-3 ovarian | OVCAR-3 ovarian | DMS 273 small cell lung | SNB-19 CNS | SF-295 CNS | NCI-H522 lung | MOLT-4 leukemia | ACHN renal | CAKI-1 renal | A549 NSCLC | SW-620 colon | U251 CNS | LOX IMVI melanoma | SN12C renal | LXFL 529 NSCLC | KM12 colon | M19-MEL melanoma | HCT-116 colon | A498 renal | HOP-62 NSCLC | 786-0 renal | SK-MEL-2 melanoma | UO-31 renal | RPMI-8226 leukemia | K-562 leukemia | UACC-62 melanoma | SNB-75 CNS | MALME-3M melanoma | HL-60(TB) leukemia | XF 498 CNS | M14 melanoma | NCI-H23 lung | OVCAR-4 ovarian | UACC-257 melanoma | KM20L2 colon | DLD-1 colon | CCRF-CEM leukemia | SR leukemia | OVCAR-8 ovarian | TK-10 renal | NCI-H226 lung | HCT-15 colon | EKVX NSCLC | OVCAR-5 ovarian | IGROV1 ovarian | DMS 114 small cell lung | COLO 205 colon | HT29 colon | SK-MEL-5 melanoma | HCC-2998 colon

Fc1cccc(F)c1C1SCc2nc3ccc(Cl)cc3n21 (stereo not given)
> 100 µM: SF-268 CNS | SK-MEL-28 melanoma | NCI-H460 lung | HOP-92 NSCLC | SK-OV-3 ovarian | MDA-N | OVCAR-3 ovarian | SNB-19 CNS | SF-295 CNS | BT-549 breast | NCI-H522 lung | DU-145 prostate | MOLT-4 leukemia | PC-3 prostate | ACHN renal | CAKI-1 renal | A549 NSCLC | SW-620 colon | U251 CNS | LOX IMVI melanoma | SN12C renal | KM12 colon | HCT-116 colon | HS 578T breast | MDA-MB-435 | T-47D breast | MDA-MB-231 breast | HOP-62 NSCLC | 786-0 renal | SK-MEL-2 melanoma | UO-31 renal | SF-539 CNS | RPMI-8226 leukemia | K-562 leukemia | UACC-62 melanoma | MCF7 breast | SNB-75 CNS | MALME-3M melanoma | HL-60(TB) leukemia | M14 melanoma | NCI-H23 lung | RXF 393 renal | OVCAR-4 ovarian | UACC-257 melanoma | CCRF-CEM leukemia | SR leukemia | OVCAR-8 ovarian | TK-10 renal | HCT-15 colon | EKVX NSCLC | OVCAR-5 ovarian | IGROV1 ovarian | COLO 205 colon | HT29 colon | SK-MEL-5 melanoma | NCI/ADR-RES ovarian | HCC-2998 colon
